Experiment: xn = mol fraction of the nth substance listed
Settings: 100 kPa, Liquid; for viscosity: Falling or rolling sphere viscometry; for mass density: Vibrating tube method

CC(C)C1CCCCC1 [(1-methylethyl)cyclohexane] + OCC1CC1
Settings	mass density [kg/m3]	viscosity [mPa·s]
293.15 K, x1 = 0.0996	891.76	–
293.15 K, x1 = 0.1003	–	3.277
293.15 K, x1 = 0.1991	874.27	2.592
293.15 K, x1 = 0.2995	859.61	2.18
293.15 K, x1 = 0.3996	847.35	1.862
293.15 K, x1 = 0.4993	836.86	1.621
293.15 K, x1 = 0.5997	827.69	–
293.15 K, x1 = 0.619	–	1.406
293.15 K, x1 = 0.7011	819.71	1.288
293.15 K, x1 = 0.7967	812.9	1.192
293.15 K, x1 = 0.9026	806.51	1.115
293.15 K, x1 = 1	802.14	1.093
298.15 K, x1 = 0.0996	887.68	–
298.15 K, x1 = 0.1003	–	2.876
298.15 K, x1 = 0.1991	870.17	2.286
298.15 K, x1 = 0.2995	855.52	1.937
298.15 K, x1 = 0.3996	843.25	1.668
298.15 K, x1 = 0.4993	832.77	1.463
298.15 K, x1 = 0.5997	823.61	–
298.15 K, x1 = 0.619	–	1.281
298.15 K, x1 = 0.7011	815.65	1.18
298.15 K, x1 = 0.7967	808.85	1.099
298.15 K, x1 = 0.9026	802.52	1.033
298.15 K, x1 = 1	798.24	1.016
303.15 K, x1 = 0.0996	883.58	–
303.15 K, x1 = 0.1003	–	2.523
303.15 K, x1 = 0.1991	866.05	2.028
303.15 K, x1 = 0.2995	851.39	1.729
303.15 K, x1 = 0.3996	839.12	1.499
303.15 K, x1 = 0.4993	828.64	1.325
303.15 K, x1 = 0.5997	819.5	–
303.15 K, x1 = 0.619	–	1.17
303.15 K, x1 = 0.7011	811.56	1.085
303.15 K, x1 = 0.7967	804.8	1.015
303.15 K, x1 = 0.9026	798.52	0.958
303.15 K, x1 = 1	794.34	0.947
308.15 K, x1 = 0.0996	879.43	–
308.15 K, x1 = 0.1003	–	2.227
308.15 K, x1 = 0.1991	861.89	1.807
308.15 K, x1 = 0.2995	847.23	1.551
308.15 K, x1 = 0.3996	834.96	1.356
308.15 K, x1 = 0.4993	824.49	1.207
308.15 K, x1 = 0.5997	815.37	–
308.15 K, x1 = 0.619	–	1.075
308.15 K, x1 = 0.7011	807.46	1.001
308.15 K, x1 = 0.7967	800.75	0.941
308.15 K, x1 = 0.9026	794.49	0.893
308.15 K, x1 = 1	790.43	0.886
313.15 K, x1 = 0.0996	875.25	–
313.15 K, x1 = 0.1003	–	1.912
313.15 K, x1 = 0.1991	857.7	1.617
313.15 K, x1 = 0.2995	843.04	1.399
313.15 K, x1 = 0.3996	830.77	1.231
313.15 K, x1 = 0.4993	820.31	1.103
313.15 K, x1 = 0.5997	811.21	–
313.15 K, x1 = 0.619	–	0.99
313.15 K, x1 = 0.7011	803.33	0.927
313.15 K, x1 = 0.7967	796.66	0.876
313.15 K, x1 = 0.9026	790.46	0.834
313.15 K, x1 = 1	786.51	0.831
318.15 K, x1 = 0.0996	871.02	–
318.15 K, x1 = 0.1003	–	1.706
318.15 K, x1 = 0.1991	853.46	1.454
318.15 K, x1 = 0.2995	838.79	1.266
318.15 K, x1 = 0.3996	826.54	1.121
318.15 K, x1 = 0.4993	816.09	1.012
318.15 K, x1 = 0.5997	807.02	–
318.15 K, x1 = 0.619	–	0.916
318.15 K, x1 = 0.7011	799.17	0.861
318.15 K, x1 = 0.7967	792.54	0.817
318.15 K, x1 = 0.9026	786.41	0.782
318.15 K, x1 = 1	782.59	0.782
323.15 K, x1 = 0.0996	866.78	–
323.15 K, x1 = 0.1003	–	1.525
323.15 K, x1 = 0.1991	849.2	1.312
323.15 K, x1 = 0.2995	834.53	1.151
323.15 K, x1 = 0.3996	822.28	1.027
323.15 K, x1 = 0.4993	811.84	0.932
323.15 K, x1 = 0.5997	802.8	–
323.15 K, x1 = 0.619	–	0.849
323.15 K, x1 = 0.7011	794.99	0.802
323.15 K, x1 = 0.7967	788.4	0.764
323.15 K, x1 = 0.9026	782.33	0.735
323.15 K, x1 = 1	778.66	0.738
328.15 K, x1 = 0.0996	862.47	–
328.15 K, x1 = 0.1003	–	1.372
328.15 K, x1 = 0.1991	844.88	1.189
328.15 K, x1 = 0.2995	830.2	1.05
328.15 K, x1 = 0.3996	817.96	0.943
328.15 K, x1 = 0.4993	807.55	0.861
328.15 K, x1 = 0.5997	798.54	–
328.15 K, x1 = 0.619	–	0.791
328.15 K, x1 = 0.7011	790.77	0.75
328.15 K, x1 = 0.7967	784.24	0.717
328.15 K, x1 = 0.9026	778.25	0.692
328.15 K, x1 = 1	774.72	0.698
333.15 K, x1 = 0.0996	858.1	–
333.15 K, x1 = 0.1003	–	1.239
333.15 K, x1 = 0.1991	840.5	1.082
333.15 K, x1 = 0.2995	825.83	0.961
333.15 K, x1 = 0.3996	813.6	0.869
333.15 K, x1 = 0.4993	803.22	0.799
333.15 K, x1 = 0.5997	794.24	–
333.15 K, x1 = 0.619	–	0.738
333.15 K, x1 = 0.7011	786.52	0.702
333.15 K, x1 = 0.7967	780.04	0.674
333.15 K, x1 = 0.9026	774.14	0.654
333.15 K, x1 = 1	770.77	0.661
338.15 K, x1 = 0.0996	853.67	–
338.15 K, x1 = 0.1003	–	1.124
338.15 K, x1 = 0.1991	836.06	0.988
338.15 K, x1 = 0.2995	821.41	0.883
338.15 K, x1 = 0.3996	809.2	0.804
338.15 K, x1 = 0.4993	798.85	0.743
338.15 K, x1 = 0.5997	789.91	–
338.15 K, x1 = 0.619	–	0.69
338.15 K, x1 = 0.7011	782.24	0.66
338.15 K, x1 = 0.7967	775.82	0.636
338.15 K, x1 = 0.9026	770.01	0.619
338.15 K, x1 = 1	766.81	0.628
343.15 K, x1 = 0.0996	849.17	–
343.15 K, x1 = 0.1003	–	1.023
343.15 K, x1 = 0.1991	831.57	0.905
343.15 K, x1 = 0.2995	816.93	0.815
343.15 K, x1 = 0.3996	804.75	0.746
343.15 K, x1 = 0.4993	794.44	0.693
343.15 K, x1 = 0.5997	785.54	–
343.15 K, x1 = 0.619	–	0.648
343.15 K, x1 = 0.7011	777.93	0.622
343.15 K, x1 = 0.7967	771.58	0.601
343.15 K, x1 = 0.9026	765.88	0.587
343.15 K, x1 = 1	762.84	0.598
